Assays:
[1] = molecular target: Rap guanine nucleotide exchange factor 3 (Homo sapiens, UniProt O95398); experiment: Activation of EPAC1 DEP1 deletion mutant (unknown origin) expressed in mouse NIH-3T3-A14 cells assessed as increase in Rap1b- fluorescent nucleotide methylontraniloyl-GDP nucleotide exchange by fluorescence assay; format: cell-based
[2] = test system: Human immunodeficiency virus 1; experiment: Antiviral activity against R5 tropic HIV-1 BAL infected in human PBL assessed as reduction in Agp24 level at 100 uM measured after 3 days by ELISA relative to control; format: functional; design: scale not given: the % may be the effect or the level left

Sequence of Rap guanine nucleotide exchange factor 3 (O95398 whole entry, looked up): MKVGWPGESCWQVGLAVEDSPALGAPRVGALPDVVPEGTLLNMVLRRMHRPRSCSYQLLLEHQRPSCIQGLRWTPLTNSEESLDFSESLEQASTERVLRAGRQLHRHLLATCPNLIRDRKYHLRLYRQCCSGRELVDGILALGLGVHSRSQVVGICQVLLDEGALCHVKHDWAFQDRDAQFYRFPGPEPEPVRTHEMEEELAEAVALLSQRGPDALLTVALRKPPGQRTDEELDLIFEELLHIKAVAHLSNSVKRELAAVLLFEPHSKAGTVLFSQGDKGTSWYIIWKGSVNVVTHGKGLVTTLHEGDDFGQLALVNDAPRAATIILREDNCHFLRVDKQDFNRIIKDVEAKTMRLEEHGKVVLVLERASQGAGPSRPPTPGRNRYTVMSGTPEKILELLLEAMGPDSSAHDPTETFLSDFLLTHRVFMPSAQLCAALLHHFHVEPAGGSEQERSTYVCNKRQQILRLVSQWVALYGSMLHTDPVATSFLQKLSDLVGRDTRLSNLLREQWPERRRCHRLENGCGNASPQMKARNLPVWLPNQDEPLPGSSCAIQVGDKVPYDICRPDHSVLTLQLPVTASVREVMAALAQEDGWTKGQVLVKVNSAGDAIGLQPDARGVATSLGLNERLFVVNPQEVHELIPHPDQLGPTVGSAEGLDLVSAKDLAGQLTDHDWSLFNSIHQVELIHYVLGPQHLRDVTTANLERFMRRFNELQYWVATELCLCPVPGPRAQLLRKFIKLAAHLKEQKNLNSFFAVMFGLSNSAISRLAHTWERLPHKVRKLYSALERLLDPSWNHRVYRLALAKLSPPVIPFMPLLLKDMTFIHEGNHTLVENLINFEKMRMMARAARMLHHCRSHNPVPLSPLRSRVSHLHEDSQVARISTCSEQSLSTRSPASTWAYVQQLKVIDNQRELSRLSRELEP

EC50 [1]: 2200 nM
Compound: CO[C@@H]1[C@@H]2OP(=O)(O)OC[C@H]2O[C@H]1n1c(Sc2ccc(Cl)cc2)nc2c(N)ncnc21
Activity [2]: 40%
